Experimental data: patent publication US20230218624A1 (Urovant Sciences GmbH, priority 2017, published 2023)
Values joined by “and” are separate entries in the source; they are usually repeats but may differ in a detail not shown here. Equal entries are not always repeated.

Columns and labels:
[1] = Plasma protein binding; assay type: in vitro ADME; settings: human, plasma
[2] = tested on: human plasma proteins; assay: Plasma protein binding; assay type: in vitro ADME
[3] = target: CYP3A4 (Homo sapiens, UniProt P08684); assay: In vitro CYP metabolism; assay type: in vitro ADME
[4] = tested on: patients with OAB; assay: Phase 2b cardiovascular safety: orthostatic AEs, HR and BP changes; assay type: in vivo, human; settings: for DBP change from baseline ≥5 mm Hg, subjects / DBP change from baseline ≥10 bpm, subjects / DBP change from baseline ≥15 bpm, subjects / HR change from baseline ≥5 bpm, subjects / HR change from baseline ≥10 bpm, subjects / HR change from baseline ≥15 bpm, subjects / SBP change from baseline ≥5 mm Hg, subjects / SBP change from baseline ≥10 bpm, subjects / SBP change from baseline ≥15 bpm, subjects: 3 consecutive post-baseline visits
Description: None led to discontinuation. The overall incidence of orthostatic symptoms was low.
Small differences in the percent of subjects exceeding categorical heart rate and blood pressure thresholds for vibegron were similar to those in the tolterodine arm.

[5] = Dose-Cmax and dose-AUC models and simulations from Phase 1 data; design: species or system human
Procedure: Exposure, and therefore risk of adverse-events can be further reduced with a 50 mg dose.

[6] = Drug interaction study of vibegron 75 mg and rifampin; assay type: in vivo, human
[7] = target: β3-AR (Homo sapiens, UniProt P13945)
[8] = human, in vivo
[9] = tested on: QTc interval; assay: Thorough QT study, single oral doses
[10] = Vibegron + Rifampin 600 mg QD, single dose 75 mg, healthy adults
[11] = Vibegron alone, single dose 75 mg, healthy adults

Sequence of β3-AR (P13945 whole entry): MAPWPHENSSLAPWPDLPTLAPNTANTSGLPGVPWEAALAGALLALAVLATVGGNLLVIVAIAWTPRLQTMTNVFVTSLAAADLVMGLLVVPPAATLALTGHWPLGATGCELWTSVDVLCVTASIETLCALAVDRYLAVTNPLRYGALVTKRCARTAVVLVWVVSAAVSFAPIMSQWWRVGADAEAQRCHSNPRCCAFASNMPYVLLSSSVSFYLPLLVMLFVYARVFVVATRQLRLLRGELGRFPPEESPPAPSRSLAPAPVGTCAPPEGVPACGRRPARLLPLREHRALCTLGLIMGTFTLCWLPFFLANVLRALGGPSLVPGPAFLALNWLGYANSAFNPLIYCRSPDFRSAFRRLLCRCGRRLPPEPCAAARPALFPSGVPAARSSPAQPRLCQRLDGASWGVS
Sequence of CYP3A4 (P08684 whole entry): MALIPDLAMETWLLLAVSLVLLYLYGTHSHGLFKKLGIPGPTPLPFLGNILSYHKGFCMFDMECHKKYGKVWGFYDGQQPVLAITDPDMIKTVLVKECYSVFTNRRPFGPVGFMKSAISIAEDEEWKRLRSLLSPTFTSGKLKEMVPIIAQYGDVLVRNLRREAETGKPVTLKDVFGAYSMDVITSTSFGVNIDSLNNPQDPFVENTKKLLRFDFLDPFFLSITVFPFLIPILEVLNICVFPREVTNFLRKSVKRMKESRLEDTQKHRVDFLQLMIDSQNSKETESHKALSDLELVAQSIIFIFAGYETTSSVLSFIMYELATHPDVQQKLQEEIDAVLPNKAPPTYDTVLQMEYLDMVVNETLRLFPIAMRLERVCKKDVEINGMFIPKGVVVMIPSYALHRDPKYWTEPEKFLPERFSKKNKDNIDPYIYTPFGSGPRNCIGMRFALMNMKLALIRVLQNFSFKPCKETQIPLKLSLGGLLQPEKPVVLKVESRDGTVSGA

## O=C(Nc1ccc(C[C@@H]2CC[C@H]([C@H](O)c3ccccc3)N2)cc1)[C@@H]1CCc2nccc(=O)n21 [Vibegron, (6S)—N-[4-[[(2S,5R)-5-[(R)-hydroxy(phenyl)methyl]pyrrolidin-2-yl]methyl]phenyl]-4-oxo-7,8-dihydro-6H-pyrrolo[1,2-a]pyrimidine-6-carboxamide]
[1]
  fraction unbound: 0.49
[2]
  bound to human plasma proteins: approximately 49%
[3]
  CYP responsible for in vitro metabolism: CYP3A4 is the predominant CYP responsible for in vitro metabolism
[4]; 50 mg and 100 mg
  SBP and DBP mean changes at Week 1 and mean maximum changes over 8 weeks, difference between placebo and vibegron: < 1 mm Hg
[4]; all doses
  HR mean maximum changes over 8 weeks, comparable to placebo: < 2 bpm
[4]; vibegron 3 mg
  DBP change from baseline, mean (week 1): −0.37 mm Hg
  DBP change from baseline, mean maximum (week 1 to 8): 5.03 mm Hg
  HR change from baseline, mean (week 1): 0.36 bpm
  HR change from baseline, mean maximum (week 1 to 8): 5.57 bpm
  SBP change from baseline, mean (week 1): −0.35 mm Hg
  SBP change from baseline, mean maximum (week 1 to 8): 7.14 mm Hg
  DBP change from baseline ≥5 mm Hg, subjects: (10.0) %
  DBP change from baseline ≥10 bpm, subjects: (2.1) %
  DBP change from baseline ≥15 bpm, subjects: (0.7) %
  HR change from baseline ≥5 bpm, subjects: (11.4) %
  HR change from baseline ≥10 bpm, subjects: (3.6) %
  HR change from baseline ≥15 bpm, subjects: (0.7) %
  SBP change from baseline ≥5 mm Hg, subjects: (15.0) %
  SBP change from baseline ≥10 bpm, subjects: (7.1) %
  SBP change from baseline ≥15 bpm, subjects: (2.9) %
[4]; vibegron 15 mg
  DBP change from baseline, mean (week 1): 0.03 mm Hg
  DBP change from baseline, mean maximum (week 1 to 8): 6.37 mm Hg
  HR change from baseline, mean (week 1): 0.35 bpm
  HR change from baseline, mean maximum (week 1 to 8): 6.56 bpm
  SBP change from baseline, mean (week 1): −0.34 mm Hg
  SBP change from baseline, mean maximum (week 1 to 8): 8.93 mm Hg
  DBP change from baseline ≥5 mm Hg, subjects: (11.4) %
  DBP change from baseline ≥10 bpm, subjects: (2.3) %
  DBP change from baseline ≥15 bpm, subjects: (0.8) %
  HR change from baseline ≥5 bpm, subjects: (12.9) %
  HR change from baseline ≥10 bpm, subjects: (3.0) %
  HR change from baseline ≥15 bpm, subjects: (0.8) %
  SBP change from baseline ≥5 mm Hg, subjects: (16.7) %
  SBP change from baseline ≥10 bpm, subjects: (6.8) %
  SBP change from baseline ≥15 bpm, subjects: (0.8) %
[4]; vibegron 15 mg group
  subjects with orthostatic related AEs: 0.3%
[4]; vibegron 50 mg
  DBP change from baseline, mean (week 1): −0.70 mm Hg
  DBP change from baseline, mean maximum (week 1 to 8): 4.19 mm Hg
  HR change from baseline, mean (week 1): 0.29 bpm
  HR change from baseline, mean maximum (week 1 to 8): 5.49 bpm
  SBP change from baseline, mean (week 1): −0.79 mm Hg
  SBP change from baseline, mean maximum (week 1 to 8): 7.01 mm Hg
  DBP change from baseline ≥5 mm Hg, subjects: (7.6) %
  DBP change from baseline ≥10 bpm, subjects: (3.5) %
  DBP change from baseline ≥15 bpm, subjects: (0.7) %
  HR change from baseline ≥5 bpm, subjects: (8.3) %
  HR change from baseline ≥10 bpm, subjects: (2.8) %
  HR change from baseline ≥15 bpm, subjects: (0.7) %
  SBP change from baseline ≥5 mm Hg, subjects: (16.7) %
  SBP change from baseline ≥10 bpm, subjects: (9.7) %
  SBP change from baseline ≥15 bpm, subjects: (2.1) %
[4]; vibegron 50 mg+tolterodine ER/vibegron 50 mg treatment group
  subjects with orthostatic related AEs: 0.8%
[4]; vibegron 100 mg
  DBP change from baseline, mean (week 1): −0.69 mm Hg
  DBP change from baseline, mean maximum (week 1 to 8): 4.80 mm Hg
  HR change from baseline, mean (week 1): 0.35 bpm
  HR change from baseline, mean maximum (week 1 to 8): 6.12 bpm
  SBP change from baseline, mean (week 1): −0.77 mm Hg
  SBP change from baseline, mean maximum (week 1 to 8): 6.51 mm Hg
  DBP change from baseline ≥5 mm Hg, subjects: (13.1) %
  DBP change from baseline ≥10 bpm, subjects: (3.4) %
  HR change from baseline ≥5 bpm, subjects: (11.8) %
  HR change from baseline ≥10 bpm, subjects: (3.0) %
  HR change from baseline ≥15 bpm, subjects: (0.4) %
  SBP change from baseline ≥5 mm Hg, subjects: (11.8) %
  SBP change from baseline ≥10 bpm, subjects: (4.2) %
  SBP change from baseline ≥15 bpm, subjects: (1.3) %
[4]; vibegron 100 mg group
  subjects with orthostatic related AEs: 1.1%
[5]
  higher Cmax in elderly and females than healthy young males: 50-70%
[5]; dose decreased from 100 mg to 75 mg
  reduction in Cmax: ~40%
[5]; estimation
  AUC of 75 mg lower than 200 mg single dose: ~2 fold
  AUC of 75 mg lower than 400 mg single dose: ~6 fold
  Cmax of 75 mg lower than 200 mg single dose: approximately 3.3 fold
  Cmax of 75 mg lower than 400 mg single dose: ~9.2 fold
[5]; increase in dose from 50 to 100 mg
  increase in Cmax: ~3 fold
[5]; subjects receiving a potent CYP3A/P-gp inhibitor
  higher exposure: ~2 fold
[5]; subjects with moderate renal impairment
  mean increase in AUC vs normal renal function: 1.6 fold
[6]; [10]
  CL/F, geometric mean (% CV): 57.3 (30.1) L/hr
  V/F, geometric mean (% CV): 6140 (47.0) L
  t1/2, geometric mean (% CV): 74.2 (25.2) h
[6]; [11]
  CL/F, geometric mean (% CV): 57.2 (39.7) L/hr
  V/F, geometric mean (% CV): 6930 (48.6) L
[6]; vibegron 75 mg and rifampin, healthy male and female subjects
  tolerability: well tolerated
[6]; vibegron 75 mg single doses and rifampin 600 mg QD, 3 of 20 subjects
  subjects with an AE related to study drug: 15%
[7]
  β3-AR IC50: 0.086 µg/mL
[8]
  dose recovered in feces: approximately 59%
  dose recovered in urine: ~20%
[9]; single dose 200 mg
  AUC, mean ± SD: 2430 ± 974 ng·h/mL
  Maximum mean placebo corrected change from baseline RR interval: -84.36 ms
  Maximum mean placebo corrected change from baseline diastolic BP: 2.42 mmHg
  Maximum mean placebo corrected change from baseline systolic BP: 2.20 mmHg
[9]; single dose 200 mg, 0.5 hour
  QTcF LS mean difference from placebo: 2.90 ms
  QTcF change from baseline, LS mean: 1.90 ms
[9]; single dose 200 mg, 1 hour
  QTcF change from baseline, LS mean: 4.87 ms
[9]; single dose 200 mg, 1 hour (maximum)
  QTcF LS mean difference from placebo: 4.98 (3.07, 6.88) msec and 4.98 msec
[9]; single dose 200 mg, 2 hour
  QTcF LS mean difference from placebo: 2.14 ms
  QTcF change from baseline, LS mean: 2.06 ms
[9]; single dose 200 mg, 3 hour
  QTcF LS mean difference from placebo: 0.40 ms
  QTcF change from baseline, LS mean: 1.14 ms
[9]; single dose 200 mg, 4 hour
  QTcF LS mean difference from placebo: -0.83 ms
  QTcF change from baseline, LS mean: -0.40 ms
[9]; single dose 200 mg, 6 hour
  QTcF LS mean difference from placebo: -1.26 ms
  QTcF change from baseline, LS mean: -6.89 ms
[9]; single dose 200 mg, 8 hour
  QTcF LS mean difference from placebo: -1.24 ms
  QTcF change from baseline, LS mean: -9.59 ms
[9]; single dose 200 mg, 10 hour
  QTcF LS mean difference from placebo: -2.67 ms
  QTcF change from baseline, LS mean: -8.82 ms
[9]; single dose 200 mg, 12 hour
  QTcF LS mean difference from placebo: -3.72 ms
  QTcF change from baseline, LS mean: -6.82 ms
[9]; single dose 200 mg, 23.5 hour
  QTcF LS mean difference from placebo: 0.38 ms
  QTcF change from baseline, LS mean: -2.15 ms
[9]; single dose 400 mg
  Maximum mean placebo corrected change from baseline RR interval: -162.45 ms
  Maximum mean placebo corrected change from baseline diastolic BP: 3.99 mmHg
  Maximum mean placebo corrected change from baseline systolic BP: 3.97 mmHg
[9]; single dose 400 mg, 0.5 hour
  QTcF LS mean difference from placebo: 3.37 ms
  QTcF change from baseline, LS mean: 2.37 ms
[9]; single dose 400 mg, 1 hour
  QTcF change from baseline, LS mean: 4.49 ms
[9]; single dose 400 mg, 1 hour (maximum)
  QTcF LS mean difference from placebo: 4.60 (2.71, 6.48) msec and 4.60 msec
[9]; single dose 400 mg, 2 hour
  QTcF LS mean difference from placebo: 0.81 ms
  QTcF change from baseline, LS mean: 0.73 ms
[9]; single dose 400 mg, 3 hour
  QTcF LS mean difference from placebo: -1.04 ms
  QTcF change from baseline, LS mean: -0.30 ms
[9]; single dose 400 mg, 4 hour
  QTcF LS mean difference from placebo: -2.96 ms
  QTcF change from baseline, LS mean: -2.53 ms
[9]; single dose 400 mg, 6 hour
  QTcF LS mean difference from placebo: -2.70 ms
  QTcF change from baseline, LS mean: -8.33 ms
[9]; single dose 400 mg, 8 hour
  QTcF LS mean difference from placebo: -3.24 ms
  QTcF change from baseline, LS mean: -11.60 ms
[9]; single dose 400 mg, 10 hour
  QTcF LS mean difference from placebo: -4.14 ms
  QTcF change from baseline, LS mean: -10.29 ms
[9]; single dose 400 mg, 12 hour
  QTcF LS mean difference from placebo: -4.00 ms
  QTcF change from baseline, LS mean: -7.10 ms
[9]; single dose 400 mg, 23.5 hour
  QTcF LS mean difference from placebo: -0.34 ms
  QTcF change from baseline, LS mean: -2.87 ms
[9]; thorough QT study
  effect on QTc or blood pressure: no clinically meaningful effect on QTc or blood pressure
